Measurements as given in US20080275022A1, “Substituted Quinazolones as Anti-Cancer Agents” (AstraZeneca AB, priority 2004, published 2008).

Biological target: human recombinant, purified wild type His-B-Raf protein kinase (Homo sapiens, UniProt P15056)
Assay: B-Raf In Vitro ELISA Assay
Format: biochemical
Conditions: phosphorylation of MEK1; 2.5 nM B-Raf, 0.15 μM MEK1, 10 μM ATP; 1 hour preincubation at 25° C.
Description: B-Raf In Vitro ELISA Assay
Activity of human recombinant, purified wild type His-B-Raf protein kinase was determined in vitro using an enzyme-linked immunosorbent assay (ELISA) assay format, which measures phosphorylation of the B-Raf substrate, human recombinant, purified His-derived (detagged) MEK1. The reaction utilized 2.5 nM B-Raf, 0.15 μM MEK1 and 10 μM adenosine triphosphate (ATP) in 40 mM N-(2-hydroxyethyl)piperazine-N′-(2-ethanesulfonic acid hemisodium salt (HEPES), 5 mM 1,4-dithio-DL-threitol (DTT), 10 mM MgCl2, 1 mM ethylenediaminetetraacetic acid (EDTA) and 0.2 M NaCl (1×HEPES buffer), with or without compound at various concentrations, in a total reaction volume of 25 μl in 384 well plates. B-Raf and compound were preincubated in 1×HEPES buffer for 1 hour at 25° C. Reactions were initiated with addition of MEK1 and ATP in 1×HEPES buffer and incubated at 25° C. for 50 minutes and reactions stopped by addition of 10 μl 175 mM EDTA (final concentration 50 mM) in 1×HEPES buffer. 5 μl of the assay mix was then diluted 1:20 into 50 mM EDTA in 1×HEPES buffer, transferred to 384 well black high protein binding plates and incubated overnight at 4° C. Plates were washed in tris buffered saline containing 0.1% Tween20 (TBST), blocked with 50 μl Superblock (Pierce) for 1 hour at 25° C., washed in TBST, incubated with 50 μl rabbit polyclonal anti-phospho-MEK antibody (Cell Signaling) diluted 1:1000 in TBS for 2 hours at 25° C., washed with TBST, incubated with 50 μl goat anti-rabbit horseradish peroxidase-linked antibody (Cell Signaling) diluted 1:2000 in TBS for 1 hour at 25° C. and washed with TBST. 50 μl of fluorogenic peroxidase substrate (Quantablu—Pierce) was added and following incubation for 45-60 minutes, 50 ul QuantabluSTOP (Pierce) was added. Blue fluorescent product was detected at excitation 325 and emission 420 using a TECAN Ultra plate reader. Data was graphed and IC50s calculated using Excel Fit (Microsoft).

Chain of human recombinant, purified wild type His-B-Raf protein kinase (P15056 whole entry): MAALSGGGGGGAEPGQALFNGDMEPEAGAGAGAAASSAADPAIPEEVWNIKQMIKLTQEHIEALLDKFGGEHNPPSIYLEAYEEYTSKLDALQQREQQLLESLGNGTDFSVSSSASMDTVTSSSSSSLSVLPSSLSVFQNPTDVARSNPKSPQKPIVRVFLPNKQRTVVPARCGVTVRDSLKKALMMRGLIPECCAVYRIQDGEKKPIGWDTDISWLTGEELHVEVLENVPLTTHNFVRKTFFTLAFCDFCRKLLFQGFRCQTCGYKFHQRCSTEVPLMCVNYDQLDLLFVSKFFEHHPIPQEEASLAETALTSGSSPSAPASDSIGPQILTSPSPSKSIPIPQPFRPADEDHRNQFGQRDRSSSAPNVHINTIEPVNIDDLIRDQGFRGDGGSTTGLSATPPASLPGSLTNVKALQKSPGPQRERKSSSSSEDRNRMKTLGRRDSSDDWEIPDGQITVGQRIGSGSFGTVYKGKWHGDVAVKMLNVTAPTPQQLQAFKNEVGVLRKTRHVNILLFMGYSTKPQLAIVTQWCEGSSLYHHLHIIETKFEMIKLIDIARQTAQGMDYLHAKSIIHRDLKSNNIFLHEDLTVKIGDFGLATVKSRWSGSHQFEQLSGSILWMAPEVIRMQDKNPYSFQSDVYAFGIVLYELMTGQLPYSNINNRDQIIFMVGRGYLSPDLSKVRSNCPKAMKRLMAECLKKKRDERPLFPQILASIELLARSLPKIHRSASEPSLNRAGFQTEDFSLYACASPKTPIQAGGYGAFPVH

| SMILES | IC50 [nM] |
| --- | --- |
| Cc1ccc(NC(=O)c2cccc(C(F)(F)F)c2)cc1-n1cnc2ccc(NCCCN(C)C)cc2c1=O [Example 9, N-{3-[6-(3-Dimethylaminopropylamino)-4-oxo-4H-quinazolin-3-yl]-4-methylphenyl}-3-trifluoromethylbenzamide] | 535 |
| Cc1ccc(NC(=O)c2cccc(C(F)(F)F)c2)cc1-n1c(C)nc2ccc(N3CCOCC3)cc2c1=O [Example 14, N-[4-Methyl-3-(2-methyl-6-morpholin-4-yl-4-oxo-4H-quinazolin-3-yl)phenyl]-3-trifluoromethylbenzamide] | 3200 |
| Cc1ccc(NC(=O)c2cccc(C(F)(F)F)c2)cc1-n1cnc2ccc(OCCN3CCOCC3)cc2c1=O [Example 22, N-{4-Methyl-3-[6-(2-morpholinoethoxy)-4-oxo-4H-quinazolin-3-yl]phenyl}-3-trifluoromethylbenzamide] | 518 |
